Where a name gives a salt, the structure may show the parent alone. Read-outs that look alike come from different tables or passages of the source.
System: Bmi-1 protein
Assay: Sandwich ELISA Assay (Bmi-1 protein level in HT-1080 cells after compound treatment)
Format: cell-based
In short: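 Sandwich ELISA quantified Bmi-1 protein against recombinant standard (125–8000 pg/mL), with lysates captured overnight at 4 °C and signal by HRP/TMB at 450 nm (570 nm reference). Lysates came from HT-1080 cells incubated 40–48 h with test compounds in 0.5% DMSO.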

[1] = Table 1, Bmi-1 sandwich ELISA, read-out: ELISA EC50 value for Bmi-1 protein

| Compound | EC50 [1] [nM] | EC50 (read-out: ELISA EC50 value for Bmi-1 protein, Table 1, Bmi-1 sandwich ELISA) [nM] |
| --- | --- | --- |
| Cc1nn2ccccc2c1-c1cncc(Nc2cccc(Cl)c2)n1 [compound 570, N-(3-chlorophenyl)-6-(2-methylpyrazolo[1,5-a]pyridin-3-yl)pyrazin-2-amine] | 100 to 3000 |  |
| COc1ccc(Nc2cncc(-n3c(C)nc4ccc(F)cc43)n2)cc1 [compound 553, 6-(6-fluoro-2-methyl-1H-benzimidazol-1-yl)-N-(4-methoxyphenyl)pyrazin-2-amine] | 1 to 10 |  |
| Fc1cnc2nc(C3CC3)n(-c3cncc(Nc4ccc(OC(F)F)c(F)c4)n3)c2c1 [compound 459, 6-(2-cyclopropyl-6-fluoro-1H-imidazo[4,5-b]pyridin-1-yl)-N-[4-(difluoromethoxy)-3-fluorophenyl]pyrazin-2-amine] | 10 to 100 |  |
| COc1ccc2nc(C(F)(F)F)c(-c3cncc(Nc4ccccc4)n3)n2c1 [Cpd 678, 6-[6-methoxy-2-(trifluoromethyl)imidazo[1,2-a]pyridin-3-yl]-N-phenylpyrazin-2-amine] | 10 to 100 |  |
| Cc1nc2cc(F)c(F)cc2n1-c1cccc(Nc2ccc(C(F)(F)F)cc2)n1 [compound 601, 6-(5,6-difluoro-2-methyl-1H-benzimidazol-1-yl)-N-[4-(trifluoromethyl)phenyl]pyridin-2-amine] | 10 to 100 |  |
| Cc1nc2cc(Cl)c(Cl)cc2n1-c1cncc(Nc2ccc(OC(F)(F)F)cc2)n1 [compound 192, 6-(5,6-dichloro-2-methyl-1H-benzimidazol-1-yl)-N-[4-(trifluoromethoxy)phenyl]pyrazin-2-amine] | 10 to 100 |  |
| COc1ccc(Nc2cncc(-n3c(C)nc4cc(F)c(F)cc43)n2)cc1 [compound 573, 6-(5,6-difluoro-2-methyl-1H-benzimidazol-1-yl)-N-(4-methoxyphenyl)pyrazin-2-amine] | 100 to 3000 |  |
| FC(F)C(F)(F)Oc1ccc(Nc2cncc(-c3c(C(F)(F)F)nc4ccccn34)n2)cc1 [compound 322, N-[4-(1,1,2,2-tetrafluoroethoxy)phenyl]-6-[2-(trifluoromethyl)imidazo[1,2-a]pyridin-3-yl]pyrazin-2-amine] | 100 to 3000 |  |
| CCn1nc(C(F)(F)F)c(-c2cncc(Nc3ccc(OC(F)F)cc3)n2)c1C [compound 330, N-[4-(difluoromethoxy)phenyl]-6-[1-ethyl-5-methyl-3-(trifluoromethyl)-1H-pyrazol-4-yl]pyrazin-2-amine] | 10 to 100 |  |
| CCc1nc2cc(F)c(F)cc2n1-c1cncc(Nc2ccc(C(F)(F)F)cc2)n1 [compound 177, 6-(2-ethyl-5,6-difluoro-1H-benzimidazol-1-yl)-N-[4-(trifluoromethyl)phenyl]pyrazin-2-amine] | 10 to 100 |  |
| Cc1nc2cc(F)ccc2n1-c1cncc(Nc2ccc(Cl)nc2)n1 [compound 426, N-(6-chloropyridin-3-yl)-6-(5-fluoro-2-methyl-1H-benzimidazol-1-yl)pyrazin-2-amine] | 100 to 3000 |  |
| COc1ccc2nc(C)c(-c3cc(C#N)cc(Nc4ccccc4)n3)n2c1 [compound 675, 2-(6-methoxy-2-methylimidazo[1,2-a]pyridin-3-yl)-6-(phenylamino)pyridine-4-carbonitrile] | 10 to 100 |  |
| CCc1nc2c(n1-c1cncc(Nc3ccc(C(F)(F)F)cc3)n1)CN(C)CC2 [compound 398, 6-(2-ethyl-5-methyl-4,5,6,7-tetrahydro-3H-imidazo[4,5-c]pyridin-3-yl)-N-[4-(trifluoromethyl)phenyl]pyrazin-2-amine] | 100 to 3000 |  |
| Cc1nc2ccc(NCCO)cc2n1-c1cncc(Nc2ccc(C(F)(F)F)cc2)n1 [compound 397, 2-{[2-methyl-1-(6-{[4-(trifluoromethyl)phenyl]amino}pyrazin-2-yl)-1H-benzimidazol-6-yl]amino}ethanol] | 100 to 3000 |  |
| FC(F)(F)c1ccc(Nc2cncc(-c3c(C(F)(F)F)nc4ccccn34)n2)cn1 [Cpd 70, 6-[2-(trifluoromethyl)imidazo[1,2-a]pyridin-3-yl]-N-[6-(trifluoromethyl)pyridin-3-yl]pyrazin-2-amine] | 10 to 100 |  |
| Cc1nc2ccc(F)cn2c1-c1cncc(Nc2ccc(OC(F)F)c(F)c2)n1 [compound 309, N-[4-(difluoromethoxy)-3-fluorophenyl]-6-(6-fluoro-2-methylimidazo[1,2-a]pyridin-3-yl)pyrazin-2-amine] | 1 to 10 |  |
| Cc1nc(Br)c(C)n1-c1cncc(Nc2ccc(C(F)(F)F)cc2)n1 [compound 341, 6-(4-bromo-2,5-dimethyl-1H-imidazol-1-yl)-N-[4-(trifluoromethyl)phenyl]pyrazin-2-amine] | 100 to 3000 |  |
| FC1(F)Oc2ccc(Nc3cncc(-c4cccc5nc(C6CC6)cn45)n3)cc2O1 [compound 88, 6-(2-cyclopropylimidazo[1,2-a]pyridin-5-yl)-N-(2,2-difluoro-1,3-benzodioxol-5-yl)pyrazin-2-amine] | 100 to 3000 |  |
| COc1ccc2nc(C(F)(F)F)c(-c3cncc(Nc4ccc(Cl)cc4)n3)n2c1 [Cpd 679, N-(4-chlorophenyl)-6-[6-methoxy-2-(trifluoromethyl)imidazo[1,2-a]pyridin-3-yl]pyrazin-2-amine] | 10 to 100 |  |

| Compound | EC50 [1] [nM] | EC50 (read-out: ELISA EC50 value for Bmi-1 protein, Table 1, Bmi-1 sandwich ELISA) [nM] |
| --- | --- | --- |
| Cc1nc2ccccc2n1-c1cncc(Nc2ccc(C(C)(C)C)cc2)n1 [compound 659, N-(4-tert-butylphenyl)-6-(2-methyl-1H-benzimidazol-1-yl)pyrazin-2-amine] | 100 to 3000 |  |
| COc1ccc(Nc2cc(N)cc(-n3c(C)nc4cc(F)c(F)cc43)n2)cc1 [compound 656, 6-(5,6-difluoro-2-methyl-1H-benzimidazol-1-yl)-N^2-(4-methoxyphenyl)pyridine-2,4-diamine] | 10 to 100 |  |
| CCc1nc2cnccc2n1-c1cncc(Nc2ccc(C(F)(F)F)cc2)n1 [compound 370, 6-(2-ethyl-1H-imidazo[4,5-c]pyridin-1-yl)-N-[4-(trifluoromethyl)phenyl]pyrazin-2-amine] | 100 to 3000 |  |
| COc1ccc2nc(C)c(-c3cc(C#N)cc(Nc4ccc(Cl)cc4)n3)n2c1 [compound 676, 2-[(4-chlorophenyl)amino]-6-(6-methoxy-2-methylimidazo[1,2-a]pyridin-3-yl)pyridine-4-carbonitrile] | 10 to 100 |  |
| Fc1cc(Nc2cncc(-c3c(C(F)(F)F)nc4ccccn34)n2)ccc1Cl [Cpd 25, N-(4-chloro-3-fluorophenyl)-6-[2-(trifluoromethyl)imidazo[1,2-a]pyridin-3-yl]pyrazin-2-amine] | 1 to 10 |  |
| FC(F)(F)c1ccc(Nc2cncc(-n3c(C(F)(F)F)nc4ccccc43)n2)cc1 [compound 14, 6-[2-(trifluoromethyl)-1H-benzimidazol-1-yl]-N-[4-(trifluoromethyl)phenyl]pyrazin-2-amine] | 100 to 3000 |  |
| Nc1cc(Nc2ccc(C(F)(F)F)cc2)nc(-c2c(CO)nc3ccccn23)c1 [289a, [3-(4-amino-6-{[4-(trifluoromethyl)phenyl]amino}pyridin-2-yl)imidazo[1,2-a]pyridin-2-yl)methanol hydrochloride (1:2)] | 10 to 100 |  |
| COc1ccc2nc(C(F)(F)F)c(-c3cncc(Nc4ccc(Br)cc4)n3)n2c1 [Cpd 680, N-(4-bromophenyl)-6-[6-methoxy-2-(trifluoromethyl)imidazo[1,2-a]pyridin-3-yl]pyrazin-2-amine] | 10 to 100 |  |
| FC(F)Oc1ccc(Nc2cncc(-c3c(C(F)(F)F)nc4sccn34)n2)cc1 [compound 121, N-[4-(difluoromethoxy)phenyl]-6-[6-(trifluoromethyl)imidazo[2,1-b][1,3]thiazol-5-yl]pyrazin-2-amine] | 1 to 10 |  |
| Cc1nn2ccccc2c1-c1cncc(Nc2ccccc2)n1 [compound 564, 6-(2-methylpyrazolo[1,5-a]pyridin-3-yl)-N-phenylpyrazin-2-amine] | 100 to 3000 |  |
| CCc1nn2ccccc2c1-c1cc(C#N)cc(Nc2ccc(C(F)(F)F)cc2)n1 [compound 526, 2-(2-ethylpyrazolo[1,5-a]pyridin-3-yl)-6-{[4-(trifluoromethyl)phenyl]amino}pyridine-4-carbonitrile] | 10 to 100 |  |
| Cc1nc(C(F)(F)F)c(C)n1-c1cncc(Nc2ccc(C(F)(F)F)cc2)n1 [compound 318, 6-[2,5-dimethyl-4-(trifluoromethyl)-1H-imidazol-1-yl]-N-[4-(trifluoromethyl)phenyl]pyrazin-2-amine] | 100 to 3000 |  |
| Cc1nc2cc(F)c(F)cc2n1-c1cc(N)cc(Nc2ccc(Cl)cc2)n1 [compound 658, N^2-(4-chlorophenyl)-6-(5,6-difluoro-2-methyl-1H-benzimidazol-1-yl)pyridine-2,4-diamine] | 10 to 100 |  |
| Cc1nc2c(F)cc(F)cn2c1-c1cncc(Nc2ccc(C(F)(F)F)cc2)n1 [compound 254, 6-(6,8-difluoro-2-methylimidazo[1,2-a]pyridin-3-yl)-N-[4-(trifluoromethyl)phenyl]pyrazin-2-amine] |  | 1 to 10 |
| FC(F)(F)Oc1ccc(Nc2cncc(-c3c(C(F)(F)F)nc4ccccn34)n2)cc1 [Cpd 11, N-[4-(trifluoromethoxy)phenyl]-6-[2-(trifluoromethyl)imidazo[1,2-a]pyridin-3-yl]pyrazin-2-amine] | 10 to 100 |  |
| CCc1nn2ccccc2c1-c1cncc(Nc2ccc(C)cc2)n1 [compound 628, 6-(2-ethylpyrazolo[1,5-a]pyridin-3-yl)-N-(4-methylphenyl)pyrazin-2-amine] | < 1 |  |
| Cc1ccc(C)n1-c1cc(Nc2ccc(Cl)cc2)nc(-n2c(C)nc3ccccc32)c1 [compound 618, N-(4-chlorophenyl)-4-(2,5-dimethyl-1H-pyrrol-1-yl)-6-(2-methyl-1H-benzimidazol-1-yl)pyridin-2-amine] | 100 to 3000 |  |
| COc1cc(Nc2ccc(OC(F)F)cc2)nc(-c2c(C(F)(F)F)nc3ccccn23)c1 [Cpd 125, N-[4-(difluoromethoxy)phenyl]-4-methoxy-6-[2-(trifluoromethyl)imidazo[1,2-a]pyridin-3-yl]pyridin-2-amine] | 100 to 3000 |  |
| CCO/C=C\c1cn(-c2cncc(Nc3ccc(C(F)(F)F)cc3)n2)c(C)n1 [Cpd 391, 6-{4-[(Z)-2-ethoxyethenyl]-2-methyl-1H-imidazol-1-yl}-N-[4-(trifluoromethyl)phenyl]pyrazin-2-amine] | 100 to 3000 |  |

From patent publication US10584115B2, “Substituted pyridine and pyrazine BMI-1 inhibitors” (PTC Therapeutics, Inc., priority 2013, dated 2020)
